Consider 1 substance from patent US20130316958A1 (University of Southern California, priority 2010, published 2013).

The subject of assay [1] is human Atg3 deletion mutants. In words: GST pulldown with Atg3 deletion mutants. The conditions noted are these: GST-Atg3, N-terminal and C-terminal regions. The assay is classed as binding. The source says:
The overall structure of yeast Atg3 has a unique hammer-like shape with the N-terminal and C-terminal regions discretely responsible for Atg7 and Atg8 (equivalent to mammalian LC3) binding, respectively. (Yamada et al. (2007) J. Biol. Chem. 282:8036-8043). Based on the structure of yeast Atg3, human Atg3 deletion mutants fused with a GST mammalian expression vector were constructed: GST-Atg31-93, GST-Atg3193-268, GST-Atg3268-315, and GST-Atg3193-315-GST-tagged hATG3 and hATG3 mutant genes were cloned into a pcDNA5/FRT/TO derivative encoding an N-terminal GST epitope tag between the BamHI and NotI sites. GST pulldown with Flag-KSHV vFLIP, Flag-cFLIPs, Flag-MCV 159L, or Flag-HVS vFLIP along with GST-Atg3, GST-Atg3 N-terminal region (Nt), or GST-Atg3 C-terminal region (Ct) was performed as described above and was followed by immunoblotting with aFlag or aGST.

Assay [2] has as its system NF-κB. In words: NF-κB luciferase reporter assay. It counts as cell-based. The conditions noted are these: NIH3T3 cells, 48 hr post-transfection. The text has this: To determine the effects of the interactions of vFLIP with FADD, IKKαβγ, and 14-3-3σ on anti-autophagy activity, NIH3T3 cells stably expressing various vFLIP mutants were constructed: m14-3-3σ, which lacks 14-3-3σ-binding; mTRAF2, which lacks TRAF2-binding (Guasparri et al. (2006) EMBO Rep. 7:114-119); 67AAA and 58AAA, which have reduced NF-κB activation (Matta and Chaudhary (2004) Proc. Natl. Acad. Sci. USA 101:9399-9404); and mFADD, which lacks FADD-binding (Yang et al. (2005) Mol. Cell. 20:939-949). These cells were treated with either cyclohexamide (CHX) alone or CHX and TNF-α for 12 hr or with 2 μM rapamycin for 3 hr. Propidium iodide (PI) staining and flow cytometry analysis were performed to determine apoptosis levels. Alternatively, NIH3T3 cells containing vector, KSHV vFLIP, or its mutants were transfected with an NF-κB-luciferase reporter construct and a control renilla luciferase plasmid, pRL-SV40 (Promega). At 48 hr post-transfection, luciferase activity was measured with a luminometer using a dual luciferase assay kit (Promega) and normalized with renilla luciferase activity to determine transfection efficiency. GFP-LC3 puncta were detected using an inverted fluorescence microscope and the autophagy levels quantified as means (±SD) of the results from three independent experiments.

For assay [3], the system named is HCT116, HaCat, and MEF cells. Description: GFP-LC3 autophagy with KSHV vFLIP in multiple cell types. The assay is classed as cell-based. Particulars: 2 μM rapamycin 3 hr. On the procedure:
During autophagy, an LC3 precursor (LC3-I) undergoes cleavage and lipidation to yield its processed form (LC3-II) (Mizushima et al. (2008) Nature 451:1069-1075). Immunoblotting was performed with an antibody against LC3 to further measure autophagic activity. NIH3T3-Vector, NIH3T3-KSHV-vFLIP, and NIH3T3-MCV-159L cells were treated with Hank's solution for 4 hr. Polypeptides were resolved by SDS-polyacrylamide gel electrophoresis (PAGE) and transferred to a PVDF membrane (Bio-Rad). […] The proteins were visualized by a chemiluminescence reagent (Pierce) and detected by a Fuji Phosphor Imager. A large portion of LC3-I was processed to LC3-II in NIH3T3-vector cells under starvation conditions, while little or no processed LC3-II was detected in NIH3T3-KSHV-vFLIP, NIH3T3-MCV-159L, NIH3T3-HVS-vFLIP, and NIH3T3-cFLIPs cells. Finally, the ability of FLIP to block autophagy in multiple cell types was evaluated. At 12-16 hr post-transfection with GFP-LC3, HCT116, HaCat, and MEF cells containing vector or KSHV vFLIP were treated with 2 μM rapamycin for 3 hr. Subsequently, GFP-LC3 was detected using an inverted fluorescence microscope and the autophagy levels quantified as means (±SD) of the results from three independent experiments.

“KSHV vFLIP: viral FLICE-like inhibitor protein of Kaposi's sarcoma-associated herpesvirus, expressed in cells”: in assay [1], the “Atg3 region bound (GST pulldown)” value was “independently bound either the aa193-268 or aa268-315 region of the C-terminal of Atg3”. For the same substance, the NF-κB activation result in assay [2] is listed as “carried out NF-κB activation”. In assay [3], the “block of autophagy in multiple cell types” value was “efficiently blocked autophagy in a number of cell types”.
